Assay [1] relates to HIV-1 (HIV-1 RF, HIV-1 NL4-3) in CEM-SS / MT-2 cells. Description: Cytopathic effect (CPE) inhibition assay (XTT/MTT dye reduction). It counts as cell-based. The procedure, abridged: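 Readout is XTT reduction (A450, 4 h) after six days of culturing virus-infected (moi 0.025–0.819) or mock-infected CEM-SS/MT-2 cells, 2×10^4 per well, with half-log compound series. Antiviral EC50 and cytotoxic CC50 are relative to uninfected compound-free cells. Therapeutic index is CC50 divided by EC50.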
(In general: Cytopathic effects are the visible damage that an infection or toxin causes in cultured cells.)

Assay [2] concerns the target T1, HIV-1 protease (Q7S mutant form) (Human immunodeficiency virus type 1 group M subtype B, UniProt P04585, Q495S).
T1 construct: made in house
In words: HIV-1 Protease RET assay. The assay is classed as biochemical. In a few lines: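 Ki values fitted with the Morrison tight-binding equation from steady-state RET cleavage (ex 340, em 490 nm) of 5 μM RE(EDANS)SQNYPIVQK(DABCYL)R. Buffer pH 4.8 acetate, 1M NaCl, 5 mM DTT, 1 mg/ml BSA, 10% DMSO; 2 nM Q7S mutant dimer, 37 °C, 12 min.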

Where [3] appears, read: Human immunodeficiency virus 1, NL43, read-out: Ave CPE EC50.
Setting [4] is: Ave. Ki (nM), RET assay, Q7S enzyme, Morrison tight binding fit.
Setting [5] is: Human immunodeficiency virus 1, NL43, unit inferred, read-out: EC50.

The structures appear in SMILES notation. Read-outs that look alike come from different tables or passages of the source.

As a reminder, the EC50 is the concentration giving half of the maximal effect. A word on the Ki: it is a dissociation constant, usually derived from enzyme kinetics or from competition with a known ligand. Turning to `CCCNC(=O)[C@H]1N(C(=O)[C@@H](O)[C@H](Cc2ccccc2)NC(=O)c2cc(C)cc(O)c2C)CC(F)(F)C1(C)C` [Example D4, (S)-4,4-Difluoro-1-[(2S,3S)-2-hydroxy-3-(3-hydroxy-2,5-dimethyl-benzoylamino)-4-phenyl-butyryl]-3,3-dimethyl-pyrrolidine-2-carboxylic acid propylamide], the EC50 in assay [1] (setting [3]) came out at 0.009 µM. In assay [2] (setting [4]), this compound gave a Ki of less than 0.1 nM.

Take `Cc1c(O)cccc1C(=O)N[C@@H](Cc1ccccc1)[C@H](O)C(=O)N1CSC(C)(C)[C@H]1C(=O)NC1CC1` [Example A25, (R)-3-((2S,3S)-2-Hydroxy-3-{[1-(3-hydroxy-2-methyl-phenyl)-methanoyl]-amino}-4-phenyl-butanoyl)-5,5-dimethyl-thiazolidine-4-carboxylic acid cyclopropylamide]: the EC50 in assay [1] (setting [3]) was found to be 0.125 µM. Moreover, the Ki in assay [2] (setting [4]) is 0.97 nM.

Regarding `CCCNC(=O)[C@@H]1CC(F)(F)CN1C(=O)[C@@H](O)[C@H](Cc1ccccc1)NC(=O)COc1c(C)cccc1C` [Example C45, 1-{3-[2-(2,6-Dimethyl-phenoxy)-acetylamino]-2-hydroxy-4-phenyl-butyryl}-4,4-difluoro-pyrrolidine-2-carboxylic acid propylamide], in assay [1] (setting [3]), the EC50 amounted to 1.57 µM. Moreover, the inhibition constant (Ki) in assay [2] (setting [4]) came out at 3.6 nM.

Consider `Cc1ccccc1CNC(=O)[C@H]1N(C(=O)[C@@H](O)[C@H](Cc2ccccc2)NC(=O)COc2c(C)cc(Cl)cc2C)CSC1(C)C`, for which, in assay [1] (setting [5]), the concentration for a half-maximal effect (EC50) was 1.11 µM. This compound also had a Ki in assay [2] (Ki, unit inferred) of 0.38 nM.

Turning to `Cc1c(O)cccc1C(=O)N[C@@H](Cc1ccccc1)[C@H](O)C(=O)N1CSC(C)(C)[C@H]1C(=O)NCc1cccnc1` [Example A5, (R)-3-((2S,3S)-2-Hydroxy-3-{[1-(3-hydroxy-2-methyl-phenyl)-methanoyl]-amino}-4-phenyl-butanoyl)-5,5-dimethyl-thiazolidine-4-carboxylic acid (pyridin-3-ylmethyl)-amide], the concentration giving a half-maximal response (EC50) in assay [1] (setting [3]) was found to be 0.148 µM. In assay [2] (setting [4]), this compound came in with an inhibitory constant (Ki) of 0.2 nM.

For the compound `Cc1c(O)cccc1C(=O)N[C@@H](Cc1ccccc1)[C@H](O)C(=O)N1CSC(C)(C)[C@H]1C(=O)NC1CCCCCC1` [Example A31, (R)-3-((2S,3S)-2-Hydroxy-3-{[1-(3-hydroxy-2-methyl-phenyl)-methanoyl]-amino}-4-phenyl-butanoyl)-5,5-dimethyl-thiazolidine-4-carboxylic acid cycloheptylamide], in assay [1] (setting [3]), the half-maximal effective concentration (EC50) is 0.062 µM. In assay [2] (setting [4]), this compound gave an inhibitory constant (Ki) of 0.44 nM.

For `C#CCOC(=O)N[C@@H](Cc1ccccc1)[C@H](O)C(=O)N1CSC(C)(C)[C@H]1C(=O)NCc1ccccc1Cl` [Example B48, {1-Benzyl-3-[4(2-chloro-benzylcarbamoyl)-5,5-dimethyl-thiazolidin-3-yl]-2-hydroxy-3-oxo-propyl}-carbamic acid prop-2-ynyl ester], in assay [1] (setting [3]), the EC50 is 1.48 µM. The compound further came in with a Ki in assay [2] (setting [4]) of 0.83 nM.

`CC1(C)SCN(C(=O)[C@@H](O)[C@H](Cc2ccccc2)NC(=O)c2cccc3c2CCN3)[C@@H]1C(=O)NCC1CC1` [Example B28, 2,3-Dihydro-1H-indole-4-carboxylic acid {(1S,2S)-1-benzyl-3-[(R)-4-(cyclopropylmethyl-carbamoyl)-5,5-dimethyl-thiazoldin-3-yl]-2-hydroxy-3-oxo-propyl}-amide]: the 50% effective concentration (EC50) in assay [1] (setting [3]) came to 0.731 µM. For the same compound, the inhibition constant (Ki) in assay [2] (setting [4]) amounted to 4.2 nM.

Regarding `CC1(C)SCN(C(=O)[C@@H](O)[C@H](Cc2ccccc2)NC(=O)O[C@H]2CCOC2)[C@@H]1C(=O)N[C@@H]1CCOc2ccccc21`, the EC50 in assay [1] (setting [5]) amounted to 1.55 µM. Also, the Ki in assay [2] (Ki, unit inferred) was 3.7 nM.

`CCOC(=O)N[C@@H](Cc1ccccc1)[C@H](O)C(=O)N1CSC(C)(C)[C@H]1C(=O)NCc1ccccc1C`: the EC50 in assay [1] (setting [5]) was found to be 1.64 µM. For the same compound, in assay [2] (Ki, unit inferred), affinity was put at a Ki of 0.88 nM.

On to `Cc1c(O)cccc1C(=O)N[C@@H](Cc1ccccc1)[C@H](O)C(=O)N1CSC(C)(C)[C@H]1C(=O)N[C@@H]1CCCc2ncccc21` [Example A43, 3-[2-Hydroxy-3-(3-hydroxy-2-methyl-benzoylamino)-4-phenyl-butyryl]-5,5-dimethyl-thiazolidine-4-carboxylic acid (5,6,7,8-tetrahydro-quinolin-5-yl)-amide], for which, in assay [1] (setting [3]), the EC50 amounted to 0.534 µM. This compound also returned an inhibition constant Ki in assay [2] (setting [4]) of 2.6 nM.

With `Cc1c(O)cccc1C(=O)N[C@@H](Cc1ccccc1)[C@H](O)C(=O)N1CC(F)(F)C[C@H]1C(=O)N[C@H]1CCCc2ccccc21` [Example C3, (S)-4,4-Difluoro-1-((2S,3S)-2-hydroxy-3-{[1-(3-hydroxy-2-methyl-phenyl)-methanoyl]-amino}-4-phenyl-butanoyl)-pyrrolidine-2-carboxylic acid (1,2,3,4-tetrahydro-naphthalen-1-yl)-amide], in assay [1] (setting [3]), the EC50 amounted to 0.486 µM. The compound further showed a Ki in assay [2] (setting [4]) of 0.16 nM.

On to `Cc1ccccc1CNC(=O)[C@H]1N(C(=O)[C@@H](O)[C@H](Cc2ccccc2)NC(=O)[C@@H](NC(=O)c2ccccn2)C(C)C)CSC1(C)C`, for which, in assay [1] (setting [5]), the EC50 worked out at 0.126 µM. The Ki in assay [2] (Ki, unit inferred) was not above 0.1 nM.

As for `CC1(C)SCN(C(=O)[C@@H](O)[C@H](Cc2ccccc2)NC(=O)[C@@H]2CCCO2)[C@@H]1C(=O)N[C@H]1CCCc2ccccc21`, the EC50 in assay [1] (setting [5]) is 1.19 µM. Also, the inhibitory constant (Ki) in assay [2] (Ki, unit inferred) stood at 4.3 nM.

With `C#CCNC(=O)[C@H]1N(C(=O)[C@@H](O)[C@H](Cc2ccccc2)NC(=O)c2cccc3[nH]ncc23)CSC1(C)C` [Example B35, 1-H-indazole-4-carboxylic acid [1-benzyl-3-(5,5-dimethyl-4-prop-2-ynylcarbamoyl-thiazolidin-3-yl)-2-hydroxy-3-oxo-propyl]-amide], in assay [1] (setting [3]), the half-maximal effective concentration (EC50) is 0.564 µM. Moreover, in assay [2] (setting [4]), the inhibition constant Ki was 11 nM.

As to `Cc1ccccc1CNC(=O)[C@H]1N(C(=O)[C@@H](O)[C@H](Cc2ccccc2)NC(=O)[C@@H](NC(=O)COc2cccc(N(C)C)c2)C(C)C)CSC1(C)C`, in assay [1] (setting [5]), the EC50 stood at 0.014 µM. Besides, the Ki in assay [2] (Ki, unit inferred) was not above 0.1 nM.

On to `CC1(C)SCN(C(=O)[C@@H](O)[C@H](Cc2ccccc2)NC(=O)[C@@H]2CCCO2)[C@@H]1C(=O)NCc1ccco1` [Example B40, (R)-3-{(2S,3S)-2-Hydroxy-4-phenyl-3-[((S)-1-tetrahydro-furan-2-yl-methanoyl)-amino]-butanoyl}-5,5-dimethyl-thiazolidine-4-carboxylic acid (furan-2-ylmethyl)-amide], for which the EC50 in assay [1] (setting [3]) was more than 1 µM. In addition, affinity in assay [2] (setting [4]) was put at a Ki of 15.1 nM.

In the case of `C=CCNC(=O)[C@H]1N(C(=O)[C@@H](O)[C@H](Cc2ccccc2)NC(=O)O[C@H]2CCOC2)CSC1(C)C` [Example B22, [(1S,2S)-3-((R)-4-Allylcarbamoyl-5,5-dimethyl-thiazolidin-3-yl)-1-benzyl-2-hydroxy-3-oxo-propyl]-carbamic acid (S)-(tetrahydro-furan-3-yl) ester], the concentration for a half-maximal effect (EC50) in assay [1] (setting [3]) worked out at 0.246 µM. For the same compound, in assay [2] (setting [4]), the inhibition constant Ki is 12 nM.

In the case of `Cc1ccccc1CNC(=O)[C@H]1N(C(=O)[C@@H](O)C(Cc2ccccc2)NC(=O)CNc2c(C)cccc2C)CSC1(C)C` (stereo partly drawn), in assay [1] (setting [5]), the half-maximal effective concentration (EC50) stood at 1.22 µM. Moreover, the affinity in assay [2] (Ki, unit inferred), expressed as Ki, was 2.3 nM.

As for `C=CCNC(=O)[C@H]1N(C(=O)[C@@H](O)[C@H](Cc2ccccc2)NC(=O)[C@@H](NC(=O)c2ccc3ccccc3n2)C(C)C)CSC1(C)C`, the EC50 in assay [1] (setting [5]) stood at 0.041 µM. The compound further registered an inhibitory constant (Ki) in assay [2] (Ki, unit inferred) not above 0.1 nM.

Consider `Cc1ccccc1CNC(=O)[C@H]1C2CCC(C2)N1C(=O)[C@@H](O)[C@H](Cc1ccccc1)NC(=O)c1cccc(O)c1C` (stereo partly drawn), for which the 50% effective concentration (EC50) in assay [1] (setting [5]) was determined as 4 µM. For the same compound, affinity in assay [2] (Ki, unit inferred) was put at a Ki of 18.4 nM.

Values taken from US7094909B2, “HIV protease inhibitors, compositions containing the same, their pharmaceutical uses and materials for their synthesis” (priority 2001, dated 2006).
